Experiments:
[1] = system: peripheral cytokine and biomarker levels; assay: Phase 1b severe COVID-19 study: peripheral cytokine and biomarker levels; format: in vivo, human
Description: The biomarker variables included pro-inflammatory cytokines (such as IL 4, IL-6, IL-10, IL-17, TNFα, and IFNγ) and RIPK1 PD cytokines/chemokines (such as MIP1α and MIP1β) that are elevated in participants with SARS-CoV-2.
The exploratory PD/biomarker endpoint was the change from baseline in peripheral cytokine and biomarker levels up to EOT.
Each analyte was selected, and the assay analytically validated based on reports in the literature and in-house research.

[2] = system: SIRS; assay: acute mouse model of SIRS; format: in vivo
Description: The RIPK1 Inhibitor was studied in an acute mouse model of SIRS. […] There is also rationale that vascular permeability and endothelial dysfunction contribute to SIRS/shock and lethality. […] Additional clinical evidence for the role of RIPK1 in driving systemic inflammation comes from evidence in a rare population of patients that have a mutation in RIPK1 that blocks caspase-mediated cleavage and leads to hyperactivation of this kinase. These patients have periodic fevers with coinciding elevations of cytokines including IL-6 and elevated levels of pRIPK1 in their PBMCs. Patient-derived cells are responsive to RIPK1 kinase inhibition, and some patients are responsive to anti-IL-6 therapy.

[3] = non-human primate toxicology studies; format: in vivo; settings: up to 29 days and up to 500 mg/kg/day
[4] = system: adult participants hospitalized for severe COVID-19; assay: Phase 1b severe COVID-19 study: ECG abnormalities (PCSA); format: in vivo, human; settings: for HR (bpm) Delta (change from baseline) / HR (bpm) Value / PR % change from baseline / PR (ms) Value / QRS % change from baseline / QRS (ms) Value / QT (ms) Delta (change from baseline) / QT (ms) Value / QTcB (ms) Delta (change from baseline) / QTcB (ms) Value / QTcF (ms) Delta (change from baseline) / QTcF (ms) Value: Discharge Before Day 15
Description: Physical examination including lung auscultation and assessment of consciousness, vital sign, electrocardiogram (ECG) parameters were measured per protocol.
For laboratory parameters (hematology, clinical chemistry, and urinalysis), vital signs, and ECG, incidences of potentially clinically significant abnormality (PCSA) values, actual values and change from baseline were summarized by treatment group.
For all laboratory, vital signs and ECG parameters, raw data and change from baseline were summarized in descriptive statistics by treatment group and scheduled time of measurement, with the exception of AST, ALT and alkaline phosphatase: instead of summarizing data in descriptive statistics, participants' profiles were presented through graphics by treatment group and with a color code to identify sites. The reason was that blood samples were processed by local laboratories with different normal ranges. For the rest of clinical laboratory these parameters it is reasonable to pool data as they are standard procedure and no significant differences in normal ranges were expected.

[5] = 600 mg, Day 7, LOCF, Safety population
[6] = 600 mg, Day 7, not statistically significant
[7] = Day 7 vs baseline, LOCF, Safety population
[8] = 600 mg (N = 47), TEAE period, safety population
[9] = individual participant 84.0 kg, 600 mg
[10] = individual participant 98.0 kg, 600 mg
[11] = individual participant 114.0 kg, 600 mg

CN1C(=O)[C@@H](NC(=O)c2nnc(Cc3ccccc3)[nH]2)COc2cccnc21 [RIPK1 Inhibitor, (S)-5-benzyl-N-(5-methyl-4-oxo-2,3,4,5-tetrahydropyrido[3,2-b][1,4]oxazepin-3-yl)-4H-1,2,4-triazole-3-carboxamide]
IL-6 fold change from baseline [1, 5]: 0.4
IL-10 fold change from baseline [1, 5]: 0.48
chemokine (C-X-C motif) Ligand 10 fold change from baseline [1, 5]: 0.26
interferon gamma fold change from baseline [1, 5]: 0.44
IL-6, ratio of relatives changes (RIPK1 Inhibitor versus placebo) [1, 6]: 0.63
IL-10, ratio of relatives changes (RIPK1 Inhibitor versus placebo) [1, 6]: 0.82
chemokine (C-X-C Motif) Ligand 10, ratio of relatives changes (RIPK1 Inhibitor versus placebo) [1, 6]: 0.7
monocyte chemotactic protein 1, ratio of fold changes between RIPK1 Inhibitor and placebo [1, 6]: 0.85
Chemokine (C-C Motif) Ligand 13 (pg/mL): RIPK1 Inhibitor 600 mg vs Placebo Fold-Change ([1]; Day 7, LOCF, Safety population): 1.15 (60)
Chemokine (C-X-C Motif) Ligand 10 (pg/mL): RIPK1 Inhibitor 600 mg vs Placebo Fold-Change ([1]; Day 7, LOCF, Safety population): 0.7 (56)
Eotaxin-1 (pg/mL): RIPK1 Inhibitor 600 mg vs Placebo Fold-Change ([1]; Day 7, LOCF, Safety population): 1.03 (65)
Interferon Gamma (pg/mL): RIPK1 Inhibitor 600 mg vs Placebo Fold-Change ([1]; Day 7, LOCF, Safety population): 1.03 (66)
Interleukin 6 (pg/mL): RIPK1 Inhibitor 600 mg vs Placebo Fold-Change ([1]; Day 7, LOCF, Safety population): 0.63 (66)
Interleukin 8 - Cytokines (pg/mL): RIPK1 Inhibitor 600 mg vs Placebo Fold-Change ([1]; Day 7, LOCF, Safety population): 0.8 (66)
Interleukin 10 (pg/mL): RIPK1 Inhibitor 600 mg vs Placebo Fold-Change ([1]; Day 7, LOCF, Safety population): 0.82 (66)
Macrophage Inflammatory Protein 1 Beta (pg/mL): RIPK1 Inhibitor 600 mg vs Placebo Fold-Change ([1]; Day 7, LOCF, Safety population): 0.85 (60)
Macrophage-Derived Chemokine (pg/mL): RIPK1 Inhibitor 600 mg vs Placebo Fold-Change ([1]; Day 7, LOCF, Safety population): 1.2 (60)
Monocyte Chemotactic Protein 1 (pg/mL): RIPK1 Inhibitor 600 mg vs Placebo Fold-Change ([1]; Day 7, LOCF, Safety population): 0.85 (60)
Ratio of Interleukin 6 and Interleukin 10 (RATIO): RIPK1 Inhibitor 600 mg vs Placebo Fold-Change ([1]; Day 7, LOCF, Safety population): 0.86 (66)
Tumor Necrosis Factor alpha (pg/mL): RIPK1 Inhibitor 600 mg vs Placebo Fold-Change ([1]; Day 7, LOCF, Safety population): 0.98 (66)
okine (C-C Motif) Ligand 17: RIPK1 Inhibitor 600 mg vs Placebo Fold-Change ([1]; Day 7, LOCF, Safety population): 1 (60)
Chemokine (C-C Motif) Ligand 13 (pg/mL): RIPK1 Inhibitor 600 mg Fold-Change [1, 7]: 1.31 (41)
Chemokine (C-X-C Motif) Ligand 10 (pg/mL): RIPK1 Inhibitor 600 mg Fold-Change [1, 7]: 0.26 (37)
Eotaxin-1 (pg/mL): RIPK1 Inhibitor 600 mg Fold-Change [1, 7]: 1.21 (45)
Interferon Gamma (pg/mL): RIPK1 Inhibitor 600 mg Fold-Change [1, 7]: 0.44 (47)
Interleukin 6 (pg/mL): RIPK1 Inhibitor 600 mg Fold-Change [1, 7]: 0.4 (47)
Interleukin 8 - Cytokines (pg/mL): RIPK1 Inhibitor 600 mg Fold-Change [1, 7]: 0.71 (47)
Interleukin 10 (pg/mL): RIPK1 Inhibitor 600 mg Fold-Change [1, 7]: 0.48 (47)
Macrophage Inflammatory Protein 1 Beta (pg/mL): RIPK1 Inhibitor 600 mg Fold-Change [1, 7]: 1.07 (41)
Macrophage-Derived Chemokine (pg/mL): RIPK1 Inhibitor 600 mg Fold-Change [1, 7]: 1.05 (41)
Monocyte Chemotactic Protein 1 (pg/mL): RIPK1 Inhibitor 600 mg Fold-Change [1, 7]: 0.69 (41)
Ratio of Interleukin 6 and Interleukin 10 (RATIO): RIPK1 Inhibitor 600 mg Fold-Change [1, 7]: 0.87 (47)
Tumor Necrosis Factor alpha (pg/mL): RIPK1 Inhibitor 600 mg Fold-Change [1, 7]: 0.85 (47)
okine (C-C Motif) Ligand 17: RIPK1 Inhibitor 600 mg Fold-Change [1, 7]: 1.56 (41)
SIRS induction [2]: dose-dependently blocked and at the highest dose completely abolished
safety concerns in toxicology studies [3]: did not raise any safety concerns
ECG PCSA Heart Rate <40 beats/min [4, 8]: 0/44
ECG PCSA Heart Rate <50 beats/min [4, 8]: 1/44
ECG PCSA Heart Rate <50 beats/min and decrease from baseline ≥20 beats/min [4, 8]: 0/44
ECG PCSA Heart Rate >100 beats/min [4, 8]: 3/44
ECG PCSA Heart Rate >100 beats/min and increase from baseline ≥20 beats/min [4, 8]: 3/44
ECG PCSA Heart Rate >120 beats/min [4, 8]: 1/44
ECG PCSA Heart Rate >120 beats/min and increase from baseline 20 beats/min [4, 8]: 1/44
ECG PCSA Heart rate>90 beats/min [4, 8]: 6/44
ECG PCSA PR Interval >200 msec [4, 8]: 1/43
ECG PCSA PR Interval >200 msec and increase from baseline ≥25% [4, 8]: 0/43
ECG PCSA PR Interval >220 msec [4, 8]: 1/43
ECG PCSA PR Interval >220 msec and increase from baseline ≥25% [4, 8]: 0/43
ECG PCSA PR Interval >240 msec [4, 8]: 0/43
ECG PCSA QRS Interval >110 msec [4, 8]: 6/44
ECG PCSA QRS Interval >110 msec and increase from baseline ≥25% [4, 8]: 3/44
ECG PCSA QRS Interval >120 msec [4, 8]: 3/44
ECG PCSA QRS Interval >120 msec and increase from baseline ≥25% [4, 8]: 2/44
ECG PCSA QT Interval >500 msec [4, 8]: 0/44
ECG PCSA QTc Bazett - change from baseline: Increase from baseline >60 msec [4, 8]: 5/39
ECG PCSA QTc Bazett - change from baseline: Increase from baseline ]30-60] msec [4, 8]: 2/39
ECG PCSA QTc Bazett >450 msec [4, 8]: 5/44
ECG PCSA QTc Bazett >500 msec [4, 8]: 3/44
ECG PCSA QTc Bazett>480 msec [4, 8]: 3/44
ECG PCSA QTc Fridericia - change from baseline: Increase from baseline >60 msec [4, 8]: 2/25
ECG PCSA QTc Fridericia - change from baseline: Increase from baseline ]30-60] msec [4, 8]: 2/25
ECG PCSA QTc Fridericia >450 msec [4, 8]: 1/29
ECG PCSA QTc Fridericia >480 msec [4, 8]: 1/29
ECG PCSA QTc Fridericia >500 msec [4, 8]: 0/29
ECG PCSA heart rate>90 beats/min and increase from baseline≥20 beats/min [4, 8]: 5/44
ECG PCSA Heart rate>90 beats/min ([4]; 600 mg, TEAE period): 6 participants
ECG PCSA QRS interval>110 ms ([4]; 600 mg, TEAE period): 6 participants
ECG PCSA QTc Bazett (QTcB)>450 ms ([4]; 600 mg, TEAE period): 5 participants
ECG PCSA QTc Bazett change from baseline>60 ms ([4]; 600 mg, TEAE period): 5 participants
ECG PCSA QTc Bazett>480 msec ([4]; 600 mg, TEAE period): 3 participants
ECG PCSA QTc Bazett>500 ms ([4]; 600 mg, TEAE period): 3 participants
ECG PCSA heart rate>90 beats/min and increase from baseline≥20 beats/min ([4]; 600 mg, TEAE period): 5 participants
HR (bpm) Delta (change from baseline) [4, 9]: −5 bpm
HR (bpm) Value [4, 9]: 73 bpm
PR % change from baseline [4, 9]: 0.0%
PR (ms) Value [4, 9]: 120 ms
QRS % change from baseline [4, 9]: 5.0%
QRS (ms) Value [4, 9]: 84 ms
QT (ms) Delta (change from baseline) [4, 9]: 0 ms
QT (ms) Value [4, 9]: 380 ms
QTcB (ms) Delta (change from baseline) [4, 9]: 69 ++ ms
QTcB (ms) Value [4, 9]: 449 ms
QTcF (ms) Delta (change from baseline) [4, 9]: -34 ms
QTcF (ms) Value [4, 9]: 380 ms
HR (bpm) Delta (change from baseline) [4, 10]: −1 bpm
HR (bpm) Value [4, 10]: 81 bpm
PR % change from baseline [4, 10]: 12.3%
PR (ms) Value [4, 10]: 164 ms
QRS % change from baseline [4, 10]: −14%
QRS (ms) Value [4, 10]: 95 ms
QT (ms) Delta (change from baseline) [4, 10]: -3 ms
QT (ms) Value [4, 10]: 371 ms
QTcB (ms) Delta (change from baseline) [4, 10]: 84 ++ ms
QTcB (ms) Value [4, 10]: 431 ms
QTcF (ms) Delta (change from baseline) [4, 10]: -5 ms
QTcF (ms) Value [4, 10]: 410 ms
HR (bpm) Delta (change from baseline) [4, 11]: 38 + bpm
HR (bpm) Value [4, 11]: 96 + bpm
PR % change from baseline [4, 11]: −11%
PR (ms) Value [4, 11]: 160 ms
QRS % change from baseline [4, 11]: −20%
QRS (ms) Value [4, 11]: 80 ms
QT (ms) Delta (change from baseline) [4, 11]: -30 ms
QT (ms) Value [4, 11]: 360 ms
QTcB (ms) Delta (change from baseline) [4, 11]: 72 ++ ms
QTcB (ms) Value [4, 11]: 455 + ms
QTcF (ms) Delta (change from baseline) [4, 11]: 36 + ms
QTcF (ms) Value [4, 11]: 421 ms

— US20230233576A1, “ECLITASERTIB FOR USE IN TREATING CONDITIONS INVOLVING SYSTEMIC HYPERINFLAMMATORY RESPONSE” (priority 2020, published 2023)
